According to patent US6528545B1, “Preparations comprising a fluorocarbon or highly fluorinated compound and a lipophilic/fluorophilic organic compound, and their uses” (priority 1991, dated 2003):

Key:
[1] = Particle size and ageing stability of perfluorooctyl bromide/lecithin emulsions (photosedimentation); assay type: physicochemical; conditions: 90% w/v emulsion of perfluorooctyl bromide
Experimental: 32 g of egg-yolk lecithin and a mixture of salts whose composition is shown in detail in Table I was dispersed with Ultra Turrax under nitrogen (24000 t/min, 10 min) in 393 mL of injectable water. Perfluorooctyl bromide (PFOB, Perflubron®) (375 mL) was added slowly to this dispersion under nitrogen. The mixture was dispersed for 10 mn at 30-40° C. The coarse emulsion obtained was passed under nitrogen through a microfluidizer (M110F). After 10 passes under a pressure of 12000 psi in the chambers cooled to 35° C., the emulsion was recovered, filled in flasks then sterilized at 121° C. for 15 mn. The ageing was monitored at 5,25 and 40° C. (Table II and FIG. 1) and the average size of the particles measured by photosedimentation.
32 g of egg-yolk lecithin and a mixture of salts of the above composition (Table I) was dispersed under nitrogen using an Ultra Turrax T50 (24000 t/min, 10 min) in 379 mL of injectable water at 30-40° C. F6H8E (14.3 mL) was slowly added to this dispersion, which was stirred for 2 min. Perfluorooctyl bromide (375 mL) was then slowly added. The whole was emulsified for 10 min at 24000 t/min at 30-40° C. The coarse emulsion obtained was run under nitrogen through the microfluidizer and after 10 passes (12000 psi, 35° C.) the emulsion was filled in vials, sterilized and stored at 5,25 and 40° C. (Table II and FIG. 1). […]
The same protocol described in the example of Reference A was used but for 16 g of egg-yolk lecithin. The aging was monitored at 40° C. (Table II and FIG. 4).
The protocol described in example 1 was used with 385 mL of water, 8.38 mL of F8H8E, 16 g of lecithin and 375 mL of perfluorooctyl bromide. After microfluidization, the emulsion was sterilized and stored at 40° C. (Table II and FIG. 4). EXAMPLE 5 […]
The same protocol described in example of reference A was used but for 8 g of egg-yolk lecithin. The aging was monitored at 40° C. (Table II and FIG. 6 ) and the average size of the particles was measured by photosedimentation.
The protocol described in example 1 was used with 382 mL of water, 4,19 mL of F8H8E, 8 g of lecithin and 375 mL of perfluorooctyl bromide. After microfluidization the emulsion was sterilized and stored at 40° C. (Table II and FIG. 6).

[2] = Facilitation of emulsification of perfluorooctyl bromide: fine particles versus number of microfluidizer passes; assay type: physicochemical; conditions: perfluorooctyl bromide/lecithin emulsion, fine particles d<0,12 μm (FIG. 9)
Experimental: The compounds used in the methods of the invention facilitate the formation of the emulsion and lead to emulsions with fine particle size after a reduced number of passes or a reduced amount of energy. When the compound F8H8E of the invention is added to perfluorooctyl bromide/lecithin emulsion, 30% of fine particles are obtained after 10 passes. By comparison, the reference emulsion without the compounds of the invention requires 20 passes to obtain the same percentage of fine particles (FIG. 9).
The protocol described in Example 1 was used. The average particle size was measured during microfluidization after 1, 2, 3, 4, 5, 7 and 10 passes. The percentage of fine particles (d<0,12 μm) and of coarse particle (d>0,6 μm) was evaluated.
The same protocol as for reference emulsion E was used but for the addition of (F8H8E) as described in example 2.

[3] = cited from earlier work

| particle size ([1]; 0.1% w/v EYP and an equimolar amount of F8H8E) | particle size ([1]; 0.2% w/v of EYP and an equimolar amount of F8H8E) | particle size ([1]; 1% w/v of EYP and 0.7% w/v of F8H8E (FIG. 6)) | particle size ([1]; 2% w/v of EYP and 1.4% w/v of F8H8E (FIG. 4)) | number of passes to obtain 30% of fine particles [2] | Compound | half retention time in liver (comparison value) [3] |
| --- | --- | --- | --- | --- | --- | --- |
| about 2.75 μm | about 1.5 μm | about 0.38 μm | about 0.23 μm | 10 passes | CCCCCCCCC=CC(F)(F)C(F)(F)C(F)(F)C(F)(F)C(F)(F)C(F)(F)C(F)(F)C(F)(F)F [Example F8H8E, C8F17CH═CHC8H17] | – |
| – | – | – | – | – | FC(F)(F)C(F)(F)C(F)(F)N(C(F)(F)C(F)(F)C(F)(F)F)C(F)(F)C(F)(F)C(F)(F)F [perfluorotripropylamine] | 65 days |
